# Values of other authors as cited in paper PMC7904743, “WIDOCK: a reactive docking protocol for virtual screening of covalent inhibitors” (Journal of Computer-Aided Molecular Design, 2021).
# Where two headings read alike, the source gives them in different places.
# Key:
# OTUB2 = conditions: experimental actives if % labeling higher than 50%, cited from earlier work
# NUDT7 = conditions: protein labeling at 200 μM; experimental actives if % labeling higher than 50%; cited from earlier work
# [1] = thiol reactivity, cited from earlier work
# [2] = natural log of average kinetic rate constant
# [3] = natural log of average rate constant
# [4] = natural log of average rate constant k
# [5] = natural logarithm of average rate constant
Compound,OTUB2 % labeling (OTUB2; OTUB2 protein labeling) [%],NUDT7 % labeling (NUDT7) [%],"ln(avg k) [1, 2]","ln(avg k) [1, 3]",OTUB2 % labeling (OTUB2) [%],"ln(avg k) [1, 4]","ln(avg k) [1, 5]"
"CC(=O)N1CCC(NC(=O)CCl)CC1 [PCM-0102932, CC(=O)N1CCC(NC(=O)CCl)CC1]",7,0,-16.417,-16.417,,,
"O=C1CN(C(=O)CCl)c2ccccc2N1 [PCM-0102362, O=C1CN(C(=O)CCl)c2ccccc2N1]",,0,,,0,-15.567,-15.567
"COC(=O)c1cccc(NC(=O)CCl)c1 [PCM-0103048, COC(=O)c1cccc(NC(=O)CCl)c1]",87,0,-15.795,-15.795,,,
"O=C(CCl)N1CCC(Cc2ccccc2)CC1 [PCM-0102492, O=C(CCl)N1CCC(Cc2ccccc2)CC1]",,18,,,18,-16.081,-16.081
"Cc1nc(CN2CCN(C(=O)CCl)CC2)cs1 [PCM-0102630, Cc1nc(CN2CCN(C(=O)CCl)CC2)cs1]",,0,,,0,-15.690,-15.690
"O=C(CCl)N1CCN(CC(=O)N2CCOCC2)CC1 [PCM-0102133, O=C(CCl)N1CCN(CC(=O)N2CCOCC2)CC1]",,0,,,15,-15.992,-15.992
"O=C(CCl)Nc1nc(-c2cccs2)cs1 [PCM-0102784, O=C(CCl)Nc1nc(-c2cccs2)cs1]",7,77,-16.029,-16.029,,,
"CC(C)(O)CNC(=O)CCl [PCM-0102554, CC(C)(O)CNC(=O)CCl]",,0,,,0,-16.972,-16.972
"CC(C)N(C(=O)CCl)C1CCCC1 [PCM-0102948, CC(C)N(C(=O)CCl)C1CCCC1]",0,13,-16.391,-16.391,,,
"CC(C)(C)c1ccc(C(=O)NNC(=O)CCl)cc1 [PCM-0102355, CC(C)(C)c1ccc(C(=O)NNC(=O)CCl)cc1]",,0,,,66,-17.324,-17.324
"Cc1ccc(S(=O)(=O)N2CCN(C(=O)CCl)CC2)cc1C [PCM-0102379, Cc1ccc(S(=O)(=O)N2CCN(C(=O)CCl)CC2)cc1C]",,10,,,0,-15.076,-15.076
"O=C(CCl)N1CCN(S(=O)(=O)c2ccc3ccccc3c2)CC1 [PCM-0102836, O=C(CCl)N1CCN(S(=O)(=O)c2ccc3ccccc3c2)CC1]",0,0,-15.169,-15.169,,,
"CC(NC(=O)CCl)c1ccc2c(c1)OCO2 (stereo not shown) [PCM-0103030, CC(NC(=O)CCl)c1ccc2c(c1)OCO2]",28,12,-16.554,-16.554,,,
"O=C(CCl)Nc1cccnc1 [PCM-0102653, O=C(CCl)Nc1cccnc1]",,0,,,0,-16.863,-16.863
"COc1cc2c(cc1OC)CN(C(=O)CCl)CC2 [PCM-0102317, COc1cc2c(cc1OC)CN(C(=O)CCl)CC2]",,10,,,14,-14.822,-14.822
"COC(=O)C1CN(C(=O)CCl)c2ccccc2O1 (stereo not shown) [PCM-0102880, COC(=O)C1CN(C(=O)CCl)c2ccccc2O1]",11,0,-17.563,-17.563,,,
"O=C(CCl)Nc1ccccc1Br [PCM-0102312, O=C(CCl)Nc1ccccc1Br]",,15,,,0,-16.261,-16.261

Compound,OTUB2 % labeling (OTUB2; OTUB2 protein labeling) [%],NUDT7 % labeling (NUDT7) [%],"ln(avg k) [1, 2]","ln(avg k) [1, 3]",OTUB2 % labeling (OTUB2) [%],"ln(avg k) [1, 4]","ln(avg k) [1, 5]"
"Cc1noc(C)c1CNC(=O)CCl [PCM-0102780, Cc1noc(C)c1CNC(=O)CCl]",0,11,-16.766,-16.766,,,
"Cc1ccsc1CNC(=O)CCl [PCM-0103075, Cc1ccsc1CNC(=O)CCl]",55,0,-16.632,-16.632,,,
"O=C(CCl)Nc1ccc(Br)cc1F [PCM-0102926, O=C(CCl)Nc1ccc(Br)cc1F]",20,17,-16.464,-16.464,,,
"NC(=O)c1c(NC(=O)CCl)sc2c1CCC2 [PCM-0102164, NC(=O)c1c(NC(=O)CCl)sc2c1CCC2]",,28,,,0,-15.581,-15.581
"O=C(CCl)Nc1ccccc1C(F)(F)F [PCM-0102170, O=C(CCl)Nc1ccccc1C(F)(F)F]",,0,,,0,-16.769,-16.769
"Cc1cc(C)c(NC(=O)CCl)c(Cl)c1 [PCM-0102994, Cc1cc(C)c(NC(=O)CCl)c(Cl)c1]",0,26,-16.989,-16.989,,,
"Cc1nn(C)c(C)c1NC(=O)CCl [PCM-0102949, Cc1nn(C)c(C)c1NC(=O)CCl]",0,0,-16.344,-16.344,,,
"O=C(CCl)N1CCN(C(=O)C2COc3ccccc3O2)CC1 (stereo not shown) [PCM-0102996, O=C(CCl)N1CCN(C(=O)C2COc3ccccc3O2)CC1]",13,0,-15.549,-15.549,,,
"O=C(CCl)N1CCN(c2ccc(O)cc2)CC1 [PCM-0102357, O=C(CCl)N1CCN(c2ccc(O)cc2)CC1]",,0,,,0,-15.487,-15.487
"CC(=O)c1cccc(NC(=O)CCl)c1 [PCM-0102965, CC(=O)c1cccc(NC(=O)CCl)c1]",36,0,-15.751,-15.751,,,
"O=C(CCl)N1CCN(c2cccc(Cl)c2)CC1 [PCM-0103032, O=C(CCl)N1CCN(c2cccc(Cl)c2)CC1]",21,22,-15.657,-15.657,,,
"CC(NC(=O)CCl)c1ccc(F)cc1 (stereo not shown) [PCM-0102228, CC(NC(=O)CCl)c1ccc(F)cc1]",,7,,,20,-15.820,-15.820
"O=C(CCl)Nc1ccc(F)c(F)c1 [PCM-0102328, O=C(CCl)Nc1ccc(F)c(F)c1]",,0,,,31,-15.726,-15.726
"CC(c1ccccc1)N(C)C(=O)CCl (stereo not shown) [PCM-0102478, CC(c1ccccc1)N(C)C(=O)CCl]",,10,,,0,-16.049,-16.049
"O=C(CCl)NC1CCCC(C(F)(F)F)C1 (stereo not shown) [PCM-0102862, O=C(CCl)NC1CCCC(C(F)(F)F)C1]",14,0,-16.578,-16.578,,,
"Cc1c(C#N)c(NC(=O)CCl)n(-c2cccc(F)c2)c1C [PCM-0102146, Cc1c(C#N)c(NC(=O)CCl)n(-c2cccc(F)c2)c1C]",,58,,,10,-15.589,-15.589
"N#Cc1cccc(C(=O)NNC(=O)CCl)c1 [PCM-0102857, N#Cc1cccc(C(=O)NNC(=O)CCl)c1]",41,0,-16.900,-16.900,,,
